# Test results reported in patent publication US9669003B2, “Use of flavone and flavanone derivatives in preparation of sedative and hypnotic drugs” (priority 2012, dated 2017).
# Marks after values point to notes of the source that are not given here.
# Experiments:
# Format in all cases: in vivo
# Kunming mice [1] = experiment: Influence on autonomic activity of normal mice (ZIL-2 mice autonomic activity meter, counts within 10 min); details: intragastric, x ± s, n = 10; for Times of activities in 1 h after drug administration/10 min: 1 h after administration; for Times of activities in 2 h after drug administration/10 min: 2 h after administration; for Times of activities in 24 h after drug administration/10 min: 24 h after administration
# Summary of the method: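 Activity counts during a 10-min window were taken at 1, 2 and 24 h after dosing in groups of 10 mixed-sex Kunming mice. Compounds were given in 0.5% CMC-Na at 25, 50 or 100 mg/kg. Statistics used Levene's homogeneity test, ANOVA and Dunnett's multiple comparisons.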
# Kunming mice [2] = experiment: Influence on hypnosis effect with pentobarbital sodium doses below the threshold (25 mg/kg i.p.); details: pentobarbital sodium 25 mg/kg i.p. 60 min later, sleep observed in 30 min, n = 10
# Summary of the method: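 Percentage of mice sleeping within 30 min after subthreshold pentobarbital sodium (25 mg/kg i.p.), defined by loss of righting reflex over 1 min, analysed by χ2. Compound in 0.5% CMC-Na given intragastrically at 25/50/100 mg/kg 60 min before; groups of 10 Kunming mice, both sexes.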
# Kunming mice [3] = experiment: Influence on hypnosis effect with pentobarbital sodium doses at the threshold (50 mg/kg i.p.); details: pentobarbital sodium 50 mg/kg i.p. 60 min later, x ± s, n = 10
# Summary of the method: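 Pentobarbital sodium (0.3%, 50 mg/kg i.p.) injected 60 min after a single intragastric dose (25, 50, 100 mg/kg, 0.5% CMC-Na vehicle) in Kunming mice, 10 per group, sexes balanced. Onset and length of sleep (righting reflex lost over 1 min) analysed by ANOVA; sleeping incidence by χ2 test.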
# [4] = test drug 25 mg/kg intragastric single dose
# [5] = test drug 50 mg/kg intragastric single dose
# [6] = test drug 100 mg/kg intragastric single dose
# [7] = 25 mg/kg intragastric single dose
# [8] = 50 mg/kg intragastric single dose
# [9] = 100 mg/kg intragastric single dose
SMILES,Times of activities in 1 h after drug administration/10 min (Kunming mice [1]; 25 mg/kg),Times of activities in 2 h after drug administration/10 min (Kunming mice [1]; 25 mg/kg),Times of activities in 24 h after drug administration/10 min (Kunming mice [1]; 25 mg/kg),Times of activities in 1 h after drug administration/10 min (Kunming mice [1]; 50 mg/kg),Times of activities in 2 h after drug administration/10 min (Kunming mice [1]; 50 mg/kg),Times of activities in 24 h after drug administration/10 min (Kunming mice [1]; 50 mg/kg),Times of activities in 1 h after drug administration/10 min (Kunming mice [1]; 100 mg/kg),Times of activities in 2 h after drug administration/10 min (Kunming mice [1]; 100 mg/kg),Times of activities in 24 h after drug administration/10 min (Kunming mice [1]; 100 mg/kg),Number of sleeping animals (Kunming mice [2]; [4]),rate of sleeping (%) (Kunming mice [2]; [4]),Number of sleeping animals (Kunming mice [2]; [5]),rate of sleeping (%) (Kunming mice [2]; [5]),Number of sleeping animals (Kunming mice [2]; [6]),rate of sleeping (%) (Kunming mice [2]; [6]),duration of sleep (Kunming mice [3]; [7]),time to sleep (Kunming mice [3]; [7]),duration of sleep (Kunming mice [3]; [8]),time to sleep (Kunming mice [3]; [8]),duration of sleep (Kunming mice [3]; [9]),also measured
"COc1ccc(C2CC(=O)c3c(OC)cc(OC)c(OC)c3O2)cc1OC (stereo not drawn) [Example 44, 5,7,8,3′,4′-penta methoxyl-flavanone]",220.8 ± 54.6 /10 min,228.7 ± 43.3 /10 min,311.6 ± 60.1 /10 min,143.4 ± 41.3 /10 min,133.5 ± 38.3 /10 min,315.1 ± 85.5 /10 min,103.4 ± 43.5 /10 min,101.7 ± 45.1 /10 min,303.8 ± 81.2 /10 min,6,60** %,7,70** %,9,90*** %,58.25 ± 15.16 min,4.43 ± 1.55 min,76.74 ± 25.45 min,3.46 ± 1.23 min,89.39 ± 23.44 min,time to sleep (Kunming mice [3]; [9]): 3.05 ± 1.57 min
CCCc1cc(-c2cc(=O)c3c(I)cc(CCS(=O)(=O)O)cc3o2)cc(C(N)=O)c1C(=O)O [Example 23],287.2 ± 45.4 /10 min,263.2 ± 45.2 /10 min,307.2 ± 82.1 /10 min,229.9 ± 40.6 /10 min,244.7 ± 47.6 /10 min,300.7 ± 71.4 /10 min,135.5 ± 35.7 /10 min,181.0 ± 38.2 /10 min,292.8 ± 90.5 /10 min,3,30%,4,40* %,7,70** %,22.77 ± 25.89 min,5.35 ± 2.33 min,28.59 ± 26.98 min,5.17 ± 2.26 min,64.89 ± 45.78 min,time to sleep (Kunming mice [3]; [9]): 3.14 ± 1.21 min
COc1ccc(-c2cc(=O)c3cc(OC)c(OC)c(OC)c3o2)cc1OC [Example 27],291.3 ± 52.1 /10 min,282.2 ± 41.5 /10 min,293.6 ± 82.9 /10 min,169.6 ± 51.3 /10 min,193.2 ± 56.4 /10 min,295.7 ± 92.3 /10 min,124.2 ± 39.4 /10 min,138.9 ± 48.9 /10 min,278.6 ± 92.7 /10 min,5,50** %,6,60** %,7,70** %,31.32 ± 22.99 min,4.88 ± 1.89 min,60.34 ± 16.90 min,4.15 ± 1.65 min,62.15 ± 33.37 min,time to sleep (Kunming mice [3]; [9]): 3.73 ± 1.47 min
"COc1ccc(-c2cc(=O)c3c(OC)c(OC)c(OC)cc3o2)cc1OC [Example 10, 5,6,7,3′,4′-penta methoxyl-flavone]",289.3 ± 50.1 /10 min,275.6 ± 44.1 /10 min,315.6 ± 76.3 /10 min,257.2 ± 61.3 /10 min,260.1 ± 58.2 /10 min,325.3 ± 80.2 /10 min,131.2 ± 30.8 /10 min,231.6 ± 44.2 /10 min,304.1 ± 82.5 /10 min,2,20%,5,50** %,6,60** %,31.72 ± 21.73 min,5.42 ± 1.58 min,39.41 ± 21.74 min,3.90 ± 1.34 min,59.21 ± 22.41 min,time to sleep (Kunming mice [3]; [9]): 3.81 ± 1.63 min
"COc1cc(-c2cc(=O)c3c(OC)c(OC)c(OC)c(OC)c3o2)cc(OC)c1OC [Example 15, 5,6,7,8,3′,4′,5′-heptamethoxyl-flavone]",287.1 ± 39.1 /10 min,255.1 ± 42.9 /10 min,308.5 ± 75.2 /10 min,254.7 ± 41.2 /10 min,239.9 ± 42.6 /10 min,317.4 ± 95.6 /10 min,179.6 ± 44.3 /10 min,152.5 ± 36.9 /10 min,287.8 ± 89.1 /10 min,3,30%,6,60** %,8,80*** %,39.93 ± 15.22 min,4.31 ± 1.65 min,51.53 ± 21.35 min,3.53 ± 1.22 min,58.25 ± 21.48 min,time to sleep (Kunming mice [3]; [9]): 3.29 ± 1.58 min
COc1ccc(C2CC(=O)c3c(O)cccc3O2)cc1O (stereo not drawn) [Example 62],279.2 ± 45.4 /10 min,264.9 ± 44.7 /10 min,309.0 ± 81.9 /10 min,237.4 ± 41.9 /10 min,242.6 ± 49.2 /10 min,297.2 ± 69.5 /10 min,125.6 ± 32.8 /10 min,170.3 ± 35.2 /10 min,279.4 ± 86.3 /10 min,3,30%,4,40* %,6,60** %,34.29 ± 22.83 min,4.87 ± 1.96 min,57.24 ± 17.30 min,4.21 ± 1.72 min,65.03 ± 32.12 min,time to sleep (Kunming mice [3]; [9]): 3.78 ± 1.90 min
N#CSc1ccc(-c2cc(=O)c3cc(N)c(F)c(C#N)c3o2)cc1O [Example 28],289.8 ± 50.1 /10 min,278.3 ± 42.9 /10 min,315.2 ± 76.3 /10 min,248.9 ± 61.1 /10 min,260.8 ± 58.1 /10 min,327.5 ± 80.7 /10 min,144.2 ± 32.5 /10 min,237.5 ± 44.3 /10 min,308.7 ± 84.7 /10 min,3,30%,5,50** %,6,60** %,27.68 ± 23.55 min,5.48 ± 2.25 min,46.89 ± 23.61 min,4.31 ± 1.19 min,55.49 ± 21.02 min,time to sleep (Kunming mice [3]; [9]): 3.93 ± 2.45 min
